In patent publication US20240076347A1, “METHODS FOR PREVENTING FUNGAL INFECTIONS” (Cidara Therapeutics, Inc., priority 2016, published 2024):

Assays:
[1] = system: C. albicans SC-5314 biofilms; assay: Mature phase biofilms (treatment) on silicone elastomer discs; assay type: cell-based, Candida albicans; settings: 1 and 4 μg/ml
Experimental: (§1) Biofilms were formed on silicone elastomer (SE) discs using a catheter-associated-biofilm model (Chandra et al., Nature Protocols 3:1909, 2008; Chandra et al., J. […] Chandra et al., J. Dental Research 80: 903, 2001). For evaluation of activity against adhesion phase biofilms (prevention), Candida cells were adhered to catheter discs for 90 min. […] Discs incubated with fluconazole or media alone were used as controls in all experiments. […] Chandra et al., J. […] Chandra et al., J. Dental Research 80: 903, 2001). Following incubation with drugs, discs were transferred to fresh plates containing phosphate buffered saline with XTT and menadione, incubated for 3 h at 37° C. and optical density was read at 492 nm. Separate batches of biofilms were stained with fluorescent dyes (FUN1™, CONA) and observed under Confocal Scanning Laser Microscope (CSLM) to evaluate biofilm architecture and thickness (Chandra et al., Nature Protocols 3:1909, 2008; Chandra et al., J. […] Statistical analyses for all data were performed using GraphPad Prism 6 software. Drug treated groups were compared to control untreated groups using unpaired t-tests.

[2] = system: Candida auris; assay: Murine model of disseminated candidiasis (immunosuppressed CD-1 mice), treatment; assay type: in vivo; settings: 20 mg/kg PO, 2 doses; Day 14
Experimental: Female 6-8 week old CD-1 mice were immunosuppressed with cyclophosphamide (200 mg/kg) 3 days prior to infection and 150 mg/kg 1 day post-infection. On the day of infection, mice were inoculated with 3×10^7 C. auris blastospores via the lateral tail vein. Mice were randomized into 5 groups (n=5 for colony forming units (CFU) and n=10 for survival): CD101 20 mg/kg administered by intraperitoneal (IP) injection, fluconazole 20 mg/kg administered per os (PO), amphotericin B 0.3 mg/kg IP, and a vehicle control. Treatments were administered 2 hours post-infection (Day 1) and again on Day 4 of the study for a total of 2 doses. Mice were monitored daily and a survival curve was generated. CFU groups were sacrificed on Day 8 of the study. One kidney was removed from each mouse, homogenized, plated on potato dextrose agar (PDA), and incubated at 35° C. for 2 days to determine CFU. The remaining survival mice were monitored until the end of the study (Day 14).

[3] = system: C. albicans strain 529L; assay: Rat model of vulvovaginal candidiasis, vaginal lavage and tissue burden; assay type: in vivo, Candida albicans
Experimental: Animal Strain. Wistar rats were supplied by Harlan Laboratories UK and were specific pathogen free. Rats weighed […] at the time of surgery. Ovariectomies were performed. Rats were allowed 4-7 days recovery before transportation to the facility where the experiment was to be performed. Following arrival, rats were allowed at least 4 days acclimatization before start of the experiment. Rats weighed 100-120 g at the time of ovariectomy and were about 300 g at start of the experiment.
Pre-conditioning. Female Wistar rats underwent ovariectomy at least 10 days prior to the study commencing. They were further pre-conditioned by treatment with 5 mg/kg 17-β-estradiol administered subcutaneously (SC) every other day on Days −7, −5, −3 and −1 prior to infection with C. albicans strain 529. Estradiol treatment continued every other day throughout the study to 7 days post-infection.
Yeast Isolate. Candida albicans strain 529L was used in this chronic rat vaginal infection model.
Infection. Yeast strains were inoculated aerobically onto Sabouraud dextrose agar media (SAB) containing 0.05 mg/mL chloramphenicol and incubated at 30° C. for 48-72 h. 18-24 h prior to infection, Yeast Peptone Dextrose (YPD) broths were inoculated with 2-3 isolated colonies from agar plates and incubated overnight (37° C. on an orbital shaker). Broths containing C. albicans strain 529L were washed 3 times with sterile phosphate buffered saline (PBS) before dilution to the correct inoculum for infection. Cell counts were determined using a haemocytometer and confirmed by quantitative culture on Sabouraud dextrose agar.
Rats were infected with 0.1 mL by intravaginal administration under inhaled isoflurane anaesthesia using about 9.8×10^5 CFU/mL (9.8×10^4 CFU/Rat) C. albicans strain 529L
Treatment. […] The fluconazole treatment also started at 24 h post infection but was administered by the PO route at the dose volume and frequency shown in Table 7. The study design is further outlined in FIG. 19.
(§2) Reduction in weight and general loss of condition due to estradiol treatment are also typical in this rat model. Colonization with C. albicans was determined by quantitative culture of daily vaginal lavage samples. Rats were euthanized 9 days post infection and C. albicans determined by quantitative culture of vaginal tissue (including uterine horns).
Lavage samples were obtained on Days 1 (pre-treatment), 2, 3, 5, 7, and 9 days post infection by flushing rat vaginas 4 times with 0.1 mL pre-warmed sterile PBS. Following euthanasia, vaginal tissue including uterine horns was removed prior to weighing. Tissues were homogenized in 2 mL sterile PBS using a bead-beater. Vaginal wash and tissue homogenates were diluted appropriately then quantitatively cultured on to Sabouraud dextrose agar containing 0.05 mg/mL chloramphenicol and incubated at 37° C. for up to 72 h before being counted.
Statistical analysis. Data were analyzed using StatsDirect software (version 2.7.8) using the non-parametric Kruskal-Wallis test and if this was statistically significant all pairwise comparisons were analyzed (Conover-Inman).

[4] = assay type: in vivo, Wistar rats; settings: rat, in vivo
Experimental: Endpoints. The rats were monitored at a frequency appropriate for their clinical condition. Rat weights were recorded at least once daily to ensure animals remained within ethical limits.
as §2

[5] = system: C. albicans SC-5314 biofilms; assay: Adhesion phase biofilms (prevention) on silicone elastomer discs; assay type: cell-based, Candida albicans; settings: 1 and 4 μg/ml
Experimental: as §1

[6] = lavage Day 1 post treatment (Day 2 post infection), 20 mg/kg PO dosed once
[7] = lavage Day 1 post treatment (Day 2 post infection), 20 mg/kg PO dosed twice
[8] = lavage Day 2 post treatment (Day 3 post infection), 20 mg/kg PO dosed once
[9] = lavage Day 2 post treatment (Day 3 post infection), 20 mg/kg PO dosed twice
[10] = lavage Day 4 post treatment (Day 5 post infection), 20 mg/kg PO dosed once
[11] = lavage Day 4 post treatment (Day 5 post infection), 20 mg/kg PO dosed twice
[12] = lavage Day 6 post treatment (Day 7 post infection), 20 mg/kg PO dosed once
[13] = lavage Day 6 post treatment (Day 7 post infection), 20 mg/kg PO dosed twice
[14] = lavage Day 8 post treatment (Day 9 post infection), 20 mg/kg PO dosed once
[15] = lavage Day 8 post treatment (Day 9 post infection), 20 mg/kg PO dosed twice
[16] = terminal vaginal tissue Day +9 post infection, 20 mg/kg PO dosed once
[17] = terminal vaginal tissue Day +9 post infection, 20 mg/kg PO dosed twice
[18] = vaginal lavage Day 1 post infection, pre-treatment, 20 mg/kg PO dosed once group
[19] = vaginal lavage Day 1 post infection, pre-treatment, 20 mg/kg PO dosed twice group

## OC(Cn1cncn1)(Cn1cncn1)c1ccc(F)cc1F [Fluconazole, fluconazole, reference compound]
[1]
  biofilm architecture (CSLM): did not affect Candida biofilms
  thickness of biofilms: had no effect
[1]; 24 h, P>0.05
  biofilm metabolic activity (XTT): neither concentrations of fluconazole (1 and 4 μg/ml) affected these biofilms
[2]
  percent survival at the end of the study: 0%
[3]; 20 mg/kg PO once or twice, all rats, Day 9
  terminal vaginal tissue burden: below the limit of detection
[3]; Day 5 post infection, 20 mg/kg PO once or twice, all rats
  lavage burden: below the limit of detection
[3]; [6]
  Group Geometric mean: 1.50 × 10^2 CFU/mL
  Log Group Geometric mean: 2.18 CFU/mL
  Log reduction from vehicle control: 1.52 CFU/mL
[3]; [7]
  Group Geometric mean: 1.27 × 10^2 CFU/mL
  Log Group Geometric mean: 2.10 CFU/mL
  Log reduction from vehicle control: 1.59 CFU/mL
[3]; lavage Day 2 post infection
  burden vs vehicle, statistics: neither the CD101 nor fluconazole burden was statistically different from the vehicle burden
[3]; lavage Day 2 post infection, fluconazole 20 mg/kg PO
  reduction in burden: about 1.6 Log10 CFU/mL
[3]; [8]
  Group Geometric mean: 1.00 CFU/mL
  Log Group Geometric mean: 0.00 CFU/mL
  Log reduction from vehicle control: 3.57 CFU/mL
[3]; [9]
  Group Geometric mean: 1.49 CFU/mL
  Log Group Geometric mean: 0.17 CFU/mL
  Log reduction from vehicle control: 3.40 CFU/mL
[3]; lavage Day 3 post infection, 20 mg/kg PO once or twice
  rats having burden below the limit of detection: 11/12
[3]; lavage Day 3 post infection, all treatments
  burden vs vehicle, statistics: statistically different from the vehicle treatments
[3]; [10]
  Group Geometric mean: 1.00 CFU/mL
  Log Group Geometric mean: 0.00 CFU/mL
  Log reduction from vehicle control: 4.22 CFU/mL
[3]; [11]
  Group Geometric mean: 1.00 CFU/mL
  Log Group Geometric mean: 0.00 CFU/mL
  Log reduction from vehicle control: 4.22 CFU/mL
[3]; [12]
  Group Geometric mean: 1.00 CFU/mL
  Log Group Geometric mean: 0.00 CFU/mL
  Log reduction from vehicle control: 4.18 CFU/mL
[3]; [13]
  Group Geometric mean: 1.00 CFU/mL
  Log Group Geometric mean: 0.00 CFU/mL
  Log reduction from vehicle control: 4.18 CFU/mL
[3]; [14]
  Group Geometric mean: 1.00 CFU/mL
  Log Group Geometric mean: 0.00 CFU/mL
  Log reduction from vehicle control: 4.30 CFU/mL
[3]; [15]
  Group Geometric mean: 1.00 CFU/mL
  Log Group Geometric mean: 0.00 CFU/mL
  Log reduction from vehicle control: 4.30 CFU/mL
[3]; [16]
  Group Geometric mean: 1.00 CFU/g
  Log Group Geometric mean: 0.00 CFU/g
  Log reduction from vehicle control: 5.49 CFU/g
[3]; [17]
  Group Geometric mean: 1.00 CFU/g
  Log Group Geometric mean: 0.00 CFU/g
  Log reduction from vehicle control: 5.49 CFU/g
[3]; [18]
  Group Geometric mean: 3.16 × 10^3 CFU/mL
  Log Group Geometric mean: 3.50 CFU/mL
  Log reduction from vehicle control: −1.06 CFU/mL
[3]; [19]
  Group Geometric mean: 1.04 × 10^3 CFU/mL
  Log Group Geometric mean: 3.02 CFU/mL
  Log reduction from vehicle control: −0.58 CFU/mL
[4]
  tolerability: well tolerated with no adverse events observed
[5]
  thickness of biofilms: no effect on biofilm thickness
[5]; 24 h, P>0.05
  biofilm metabolic activity (XTT): did not inhibit biofilm formation
